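Where inhibition never reached the appropriate level, the endpoint shown equals the highest concentration tested. Otherwise, values were interpolated linearly from a five-concentration, 48-hour dose response in 96-well plates. Abbreviation: GI50, concentration required for 50% inhibition of growth.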 Activity calls are given as the source filed them. No stated cut-off is given here; in the data, active = GI50 up to about 1.1 µM and inactive = higher. Where a SMILES comes first, the peptide text is derived from it. [ ]: non-standard residue; d: D form. Hiv = CC(C)[C@H](O)C(=O)O
Columns and labels:
Test in all cases: inhibition of tumour cell growth, NCI panel, 48 h
786-0 = system: 786-0
A549 = system: A549
HCC 2998 = system: HCC 2998
HCT-15 = system: HCT-15
KM12 = system: KM12
MCF7 = system: MCF7
MOLT-4 = system: MOLT-4
Malme-3M = system: Malme-3M
NCI/ADR-RES = system: NCI/ADR-RES
PC-3 = system: PC-3
RPMI-8226 = system: RPMI-8226
SK-MEL-2 = system: SK-MEL-2
SK-MEL-5 = system: SK-MEL-5
SN12C = system: SN12C
SW-620 = system: SW-620
U-251 = system: U-251
HT-29 = system: HT-29
Hs-578T = system: Hs-578T
UACC-257 = system: UACC-257

SMILES | GI50 (786-0) | GI50 (A549) | GI50 (HCC 2998) | GI50 (HCT-15) [µM] | GI50 (KM12) | GI50 (MCF7) | GI50 (MOLT-4) | GI50 (Malme-3M) | GI50 (NCI/ADR-RES) | GI50 (PC-3) | GI50 (RPMI-8226) | GI50 (SK-MEL-2) | GI50 (SK-MEL-5) | GI50 (SN12C) | GI50 (SW-620) | GI50 (U-251) | GI50 (HT-29) | GI50 (Hs-578T) | GI50 (UACC-257)
CC(=O)c1c[nH]cc1CO | > 10 µM (inactive) | > 10 µM (inactive) | > 10 µM (inactive) | > 10 | > 10 µM (inactive) | > 10 µM (inactive) | > 10 µM (inactive) | > 10 µM (inactive) | > 10 µM (inactive) | > 10 µM (inactive) | > 10 µM (inactive) | > 10 µM (inactive) | > 10 µM (inactive) | > 10 µM (inactive) | > 10 µM (inactive) | > 10 µM (inactive) | – | – | –
CC(Nc1ncc2c(n1)-c1ccccc1OC2)C(=O)O (configuration not stated) | > 100 µM (inactive) | > 100 µM (inactive) | – | 85.9 | > 100 µM (inactive) | 42.9 µM (inactive) | > 100 µM (inactive) | > 100 µM (inactive) | > 100 µM (inactive) | > 100 µM (inactive) | 34.2 µM (inactive) | > 100 µM (inactive) | > 100 µM (inactive) | 59.7 µM (inactive) | > 100 µM (inactive) | > 100 µM (inactive) | 39.5 µM (inactive) | 82.4 µM (inactive) | 60.3 µM (inactive)
CN1c2ccccc2C(=O)Nc2cnc(Cl)nc21 | 35.8 µM (inactive) | > 100 µM (inactive) | > 100 µM (inactive) | > 100 | > 100 µM (inactive) | > 100 µM (inactive) | > 100 µM (inactive) | > 100 µM (inactive) | 82.6 µM (inactive) | > 100 µM (inactive) | > 100 µM (inactive) | > 100 µM (inactive) | > 100 µM (inactive) | 66.7 µM (inactive) | > 100 µM (inactive) | 45.5 µM (inactive) | > 100 µM (inactive) | – | > 100 µM (inactive)
Cc1ccccc1C(C#N)/C(=N/NC(=O)c1cc2ccccc2cc1O)C(=O)Nc1cccc(Cl)c1 (configuration not stated) | 7.85 µM (inactive) | 18 µM (inactive) | 28.8 µM (inactive) | 22.4 | 33.4 µM (inactive) | – | 10.9 µM (inactive) | 30.8 µM (inactive) | – | – | 21.3 µM (inactive) | 22.5 µM (inactive) | 8.38 µM (inactive) | 35.6 µM (inactive) | 7.85 µM (inactive) | 25.6 µM (inactive) | 42.1 µM (inactive) | – | 20.7 µM (inactive)
CCOC(=O)c1sc2[n+](c1C)C(=O)/C(=C/c1ccc([N+](=O)[O-])cc1)S2 | 22.2 µM (inactive) | 23.5 µM (inactive) | 17.2 µM (inactive) | – | 18.4 µM (inactive) | 21.2 µM (inactive) | 22.2 µM (inactive) | – | 13.8 µM (inactive) | 18.9 µM (inactive) | 10.4 µM (inactive) | 20.7 µM (inactive) | 38.8 µM (inactive) | 36.6 µM (inactive) | 28.5 µM (inactive) | 17.3 µM (inactive) | 16.8 µM (inactive) | 23.2 µM (inactive) | 28.1 µM (inactive)
C/C(=N\NC(=O)c1ccncc1)c1cccc(F)c1 | > 10 µM (inactive) | > 10 µM (inactive) | > 10 µM (inactive) | > 10 | > 10 µM (inactive) | > 10 µM (inactive) | > 10 µM (inactive) | > 10 µM (inactive) | > 10 µM (inactive) | > 10 µM (inactive) | > 10 µM (inactive) | > 10 µM (inactive) | > 10 µM (inactive) | > 10 µM (inactive) | > 10 µM (inactive) | > 10 µM (inactive) | – | – | –
CC(C)[C@@H]1OC(=O)[C@@H](C)NC(=O)[C@@H]2CCCN2C1=O (cyclo([Hiv]-Pro-[dA])) | > 100 µM (inactive) | > 100 µM (inactive) | > 100 µM (inactive) | > 100 | > 100 µM (inactive) | > 100 µM (inactive) | > 100 µM (inactive) | > 100 µM (inactive) | > 100 µM (inactive) | > 100 µM (inactive) | – | > 100 µM (inactive) | > 100 µM (inactive) | > 100 µM (inactive) | > 100 µM (inactive) | – | > 100 µM (inactive) | > 100 µM (inactive) | > 100 µM (inactive)
